One data set in a line: in vitro. The note with it: % Viability non-Wnt responsive cells.
Data set [1] concerns the target Wnt-responsive promoter (TCF/LEF). The data set can be described thus: Wnt-dependent luciferase reporter assay. It counts as cell-based, murine. In outline:
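EC50 (uM) derived from inhibition of luminescence in Wnt3a-stimulated murine 3T3 cells expressing luciferase under a TCF/LEF promoter, with peptides added across a concentration range and vehicle as control.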

A further data set addresses T1, β-catenin (Homo sapiens, UniProt P35222).
T1 sequence (P35222 1-781): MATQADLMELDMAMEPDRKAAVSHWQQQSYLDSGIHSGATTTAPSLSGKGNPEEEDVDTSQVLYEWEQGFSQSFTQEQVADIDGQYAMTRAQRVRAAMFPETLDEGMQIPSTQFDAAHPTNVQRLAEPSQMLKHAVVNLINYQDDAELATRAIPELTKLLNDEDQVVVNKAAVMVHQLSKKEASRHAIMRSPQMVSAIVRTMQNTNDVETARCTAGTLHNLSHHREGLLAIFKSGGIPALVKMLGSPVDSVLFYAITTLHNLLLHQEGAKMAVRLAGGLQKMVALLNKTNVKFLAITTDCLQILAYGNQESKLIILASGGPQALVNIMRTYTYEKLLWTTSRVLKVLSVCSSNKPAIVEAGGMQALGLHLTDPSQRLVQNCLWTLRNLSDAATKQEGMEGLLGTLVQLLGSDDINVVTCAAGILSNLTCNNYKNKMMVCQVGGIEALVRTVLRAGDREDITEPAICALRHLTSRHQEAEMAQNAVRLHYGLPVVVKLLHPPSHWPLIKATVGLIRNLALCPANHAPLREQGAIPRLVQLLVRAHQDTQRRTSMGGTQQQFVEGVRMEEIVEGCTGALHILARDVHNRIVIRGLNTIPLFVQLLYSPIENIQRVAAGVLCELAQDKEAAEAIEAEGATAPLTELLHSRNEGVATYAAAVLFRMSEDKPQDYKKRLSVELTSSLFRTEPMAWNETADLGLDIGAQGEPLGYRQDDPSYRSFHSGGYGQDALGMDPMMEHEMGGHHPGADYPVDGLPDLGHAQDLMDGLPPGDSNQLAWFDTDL
Put plainly: KD50 measurement using competitive fluorescence polarization (FP) with labelled TCF4. It counts as binding. Particulars: fluorescence polarization, β-catenin; for Kd: read-out: β-Cat FP KD. In outline: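 Competitive FP in which unlabelled inhibitor (10 nM to 30 uM dilution series) displaces 5 nM labelled TCF4 from 100 nM β-catenin, room temperature. Read-out ex 470 nm, em 520 nm; experiment repeated three times.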

For data set [2] the following is noted: % Viability non-Wnt responsive cells.

Where two headings read alike, the source gives them in different places. Where a SMILES comes first, the peptide text is derived from it.

`CC[C@H](C)[C@@H]1NC(=O)[C@H](CC(C)C)NC(=O)[C@H](Cc2ccccc2)NC(=O)[C@H](Cc2c[nH]c3ccccc23)NC(=O)[C@H](CCSC)NC(=O)[C@@H](N)CCCCNC(=O)CNC(=O)[C@H](Cc2c[nH]c3ccccc23)NC(=O)[C@H](Cc2ccccc2)NC(=O)[C@H](CO)NC1=O` [compound 26] (HELM PEPTIDE1{K.M.W.F.L.I.S.F.W.G}$PEPTIDE1,PEPTIDE1,1:R3-10:R2$$$V2.0; bridges inferred): the viability in “in vitro” is 88%. Moreover, the EC50 in data set [1] was 7.5 to 15 µM.

For `CC[C@H](C)[C@@H]1NC(=O)[C@H](CC(C)C)NC(=O)[C@H](Cc2ccccc2)NC(=O)[C@H](Cc2c[nH]c3ccccc23)NC(=O)[C@H](CCSC)NC(=O)[C@H](CCCNC(=N)N)NC(=O)[C@H](CO)NC(=O)[C@H](CCSC)NC(=O)[C@@H](N)CCCCNC(=O)CNC(=O)[C@H](Cc2c[nH]c3ccccc23)NC(=O)[C@H](CC(C)C)NC(=O)[C@H](CO)NC1=O` [compound 28] (HELM PEPTIDE1{K.M.S.R.M.W.F.L.I.S.L.W.G}$PEPTIDE1,PEPTIDE1,1:R3-13:R2$$$V2.0; bridges inferred), in the data set “in vitro”, the viability amounted to 91%. The molecule also gave an EC50 in data set [1] of 22.5 to 30 µM.

With `CC[C@H](C)[C@H](NC(=O)[C@H](CC(C)C)NC(=O)[C@H](Cc1ccccc1)NC(=O)[C@H](Cc1c[nH]c2ccccc12)NC(=O)[C@H](CCSC)NC(=O)[C@H](CCCNC(=N)N)NC(=O)[C@@H](NC(=O)[C@@H](N)CCSC)[C@@H](C)CC)C(=O)N[C@@H](CO)C(=O)N[C@@H](Cc1ccccc1)C(=O)N[C@@H](Cc1c[nH]c2ccccc12)C(=O)NCC(=O)O` [compound 15] (H-MIRMWFLISFWG-OH), the viability in “in vitro” is 103%. This molecule showed a 50% effective concentration (EC50) in data set [1] of less than 7.5 µM.

Consider `CC[C@H](C)[C@@H]1NC(=O)[C@H](CC(C)C)NC(=O)[C@H](Cc2ccc(O)cc2)NC(=O)[C@H](Cc2c[nH]c3ccccc23)NC(=O)[C@H](CCSC)NC(=O)[C@H](CCCNC(=N)N)NC(=O)[C@H](CO)NC(=O)[C@H](CCSC)NC(=O)[C@@H](N)CCCCNC(=O)CNC(=O)[C@H](Cc2c[nH]c3ccccc23)NC(=O)[C@H](Cc2ccccc2)NC(=O)[C@H](CO)NC1=O` [compound 27] (HELM PEPTIDE1{K.M.S.R.M.W.Y.L.I.S.F.W.G}$PEPTIDE1,PEPTIDE1,1:R3-13:R2$$$V2.0; bridges inferred), for which the viability in “in vitro” is 96%. In addition, in data set [1], the EC50 is greater than 30 µM.

Regarding `CC[C@H](C)[C@H](NC(=O)[C@H](CO)NC(=O)[C@H](CCC(=O)O)NC(=O)[C@H](Cc1c[nH]c2ccccc12)NC(=O)[C@@H](N)CCSC)C(=O)N[C@@H](CC(C)C)C(=O)N[C@@H](CC(=O)O)C(=O)N[C@@H](CCC(=O)O)C(=O)N[C@@H](Cc1c[nH]cn1)C(=O)N[C@H](C(=O)N[C@@H](CCC(N)=O)C(=O)N[C@@H](CCCNC(=N)N)C(=O)N[C@H](C(=O)N[C@@H](Cc1c[nH]c2ccccc12)C(=O)NCC(=O)O)C(C)C)C(C)C` [compound 22] (H-MWESILDEHVQRVWG-OH), the viability in “in vitro” came to 99.6%. In data set [1], this molecule returned an EC50 greater than 30 µM.

Turning to `CC[C@H](C)[C@H](NC(=O)[C@H](CC(C)C)NC(=O)[C@H](Cc1ccccc1)NC(=O)[C@@H](N)Cc1c[nH]c2ccccc12)C(=O)N[C@@H](CO)C(=O)N[C@@H](Cc1ccccc1)C(=O)N[C@@H](Cc1c[nH]c2ccccc12)C(=O)O` [compound 110] (H-WFLISFW-OH), at β-catenin, the “β-Cat FP Hill slope” value worked out at 3 and the Kd is 1 to 10 µM. The 50% effective concentration (EC50) in data set [1] lay in the range of 7.5 to 15 µM. For the same molecule, the viability in data set [2] amounted to 103%.

As for `CC[C@H](C)[C@H](NC(=O)[C@H](CC(C)C)NC(=O)[C@H](Cc1ccccc1)NC(=O)[C@H](Cc1c[nH]c2ccccc12)NC(=O)[C@@H](N)CCSC)C(=O)N[C@@H](CO)C(=O)N[C@@H](C)C(=O)N[C@@H](Cc1c[nH]c2ccccc12)C(=O)NCC(=O)O` [compound 160] (H-MWFLISAWG-OH), the Kd at β-catenin is greater than 30 µM. Moreover, the EC50 in data set [1] is less than 7.5 µM. Also, the viability in data set [2] worked out at 102%.

As for `CC[C@H](C)[C@H](NC(=O)[C@H](CC(C)C)NC(=O)[C@H](Cc1ccccc1)NC(=O)[C@H](Cc1c[nH]c2ccccc12)NC(=O)[C@H](CCSC)NC(=O)[C@H](CCCNC(=N)N)NC(=O)[C@@H](NC(=O)[C@@H](N)CCSC)[C@@H](C)O)C(=O)N[C@@H](CO)C(=O)N[C@@H](Cc1ccccc1)C(=O)N[C@@H](Cc1c[nH]c2ccccc12)C(N)=O` [compound 73] (H-MTRMWFLISFW-NH2), the Kd on β-catenin was greater than 30 µM. Also, in data set [1], the EC50 is greater than 30 µM. Also, in data set [2], the viability was determined as 97.3%.

Turning to `CC[C@H](C)[C@H](NC(=O)[C@H](CC(C)C)NC(=O)[C@H](Cc1ccccc1)NC(=O)[C@@H](N)Cc1c[nH]c2ccccc12)C(=O)N[C@@H](CO)C(=O)N[C@@H](CO)C(=O)N[C@@H](Cc1c[nH]c2ccccc12)C(=O)O` [compound 97] (H-WFLISSW-OH), on β-catenin, the “β-Cat FP Hill slope” value was determined as 2.45 and the Kd lay in the range of 1 to 10 µM. The molecule further showed an EC50 in data set [1] of 22.5 to 30 µM. In addition, the viability in data set [2] is 102%.

Turning to `CC[C@H](C)[C@@H]1NC(=O)[C@H](CC(C)C)NC(=O)[C@H](C2CCCCC2)NC(=O)[C@H](Cc2c[nH]c3ccccc23)NC(=O)[C@@H](N)CCCCNC(=O)C[C@@H](C(=O)O)NC(=O)[C@H](Cc2c[nH]c3ccccc23)NC(=O)[C@H](C)NC(=O)[C@H](CO)NC1=O` [compound 204] (HELM PEPTIDE1{K.W.[O=C([C@@H](N[*:1])C1CCCCC1)[*:2]].L.I.S.A.W.D}$PEPTIDE1,PEPTIDE1,1:R3-9:R3$$$V2.0), on β-catenin, the “β-Cat FP Hill slope” value is listed as 0.74 and the Kd is 0.4 to 1 µM. In data set [1], this molecule gave an EC50 of less than 7.5 µM. Besides, the viability in data set [2] stood at 108%.

On to `CC[C@H](C)[C@H](NC(=O)[C@H](CC(C)C)NC(=O)[C@H](Cc1ccccc1)NC(=O)[C@H](Cc1c[nH]c2ccccc12)NC(=O)[C@H](CCSC)NC(=O)[C@H](CCCNC(=N)N)NC(=O)[C@@H](NC(=O)[C@@H](N)CCSC)[C@@H](C)CC)C(=O)N[C@@H](CS)C(=O)N[C@@H](C)C(=O)N[C@@H](Cc1c[nH]c2ccccc12)C(=O)NCC(=O)O` [compound 166] (H-MIRMWFLICAWG-OH), for which the dissociation constant Kd on β-catenin is greater than 30 µM. In data set [1], this molecule gave a concentration giving a half-maximal response (EC50) greater than 30 µM. Moreover, the viability in data set [2] came to 100%.

On to `CC[C@H](C)[C@H](NC(=O)[C@H](CC(C)C)NC(=O)[C@H](Cc1ccccc1)NC(=O)[C@H](Cc1c[nH]c2ccccc12)NC(=O)[C@@H](NC(=O)[C@H](CCCNC(=N)N)NC(=O)[C@H](CO)NC(=O)[C@@H](N)CCSC)[C@@H](C)O)C(=O)N[C@@H](CO)C(=O)N[C@@H](Cc1ccccc1)C(=O)N[C@@H](Cc1c[nH]c2ccccc12)C(=O)NCC(=O)O` [compound 48] (H-MSRTWFLISFWG-OH), for which, at β-catenin, the Kd is greater than 30 µM. Further, the EC50 in data set [1] lay in the range of 7.5 to 15 µM. For the same molecule, the viability in data set [2] turned out to be 101%.

Consider `CC[C@H](C)[C@H](NC(=O)[C@H](CC(C)C)NC(=O)[C@@H](NC(=O)[C@H](Cc1c[nH]c2ccccc12)NC(=O)[C@H](CCSC)NC(=O)[C@@H](N)CCCNC(=N)N)[C@@H](C)CC)C(=O)N[C@@H](CO)C(=O)N[C@@H](Cc1ccccc1)C(=O)N[C@@H](Cc1c[nH]c2ccccc12)C(=O)NCC(=O)O` [compound 124] (H-RMWILISFWG-OH), for which the Kd at β-catenin was greater than 30 µM. The same molecule gave a concentration for a half-maximal effect (EC50) in data set [1] of 7.5 to 15 µM. The viability in data set [2] came to 102%.

Consider `CC[C@H](C)[C@H](NC(=O)[C@H](CC(C)C)NC(=O)[C@H](Cc1ccccc1)NC(=O)[C@H](Cc1c[nH]c2ccccc12)NC(=O)[C@@H](N)CCSC)C(=O)N[C@@H](CCC(N)=O)C(=O)N[C@@H](Cc1ccccc1)C(=O)N[C@@H](Cc1c[nH]c2ccccc12)C(=O)NCC(=O)O` [compound 143] (H-MWFLIQFWG-OH), for which, at β-catenin, the Kd was greater than 30 µM. The same molecule had an EC50 in data set [1] of 7.5 to 15 µM. Further, the viability in data set [2] is 104%.

`CC[C@H](C)[C@@H]1NC(=O)[C@H](CC(C)C)NC(=O)[C@H](CC(C)C)NC(=O)[C@H](Cc2c[nH]c3ccccc23)NC(=O)[C@H](CCSC)NC(=O)[C@H](CCCNC(=N)N)NC(=O)[C@H](CO)NC(=O)[C@H](CCSC)NC(=O)[C@@H](N)CCCCNC(=O)CNC(=O)[C@H](Cc2c[nH]c3ccccc23)NC(=O)[C@H](Cc2ccccc2)NC(=O)[C@H](CO)NC1=O` [compound 25] (HELM PEPTIDE1{K.M.S.R.M.W.L.L.I.S.F.W.G}$PEPTIDE1,PEPTIDE1,1:R3-13:R2$$$V2.0; bridges inferred): the viability in “in vitro” was 97%. Further, in data set [1], the EC50 lay within 7.5 to 15 µM.

These data come from patent US12441768B2, “Compositions and methods for treating endometriosis” (EndoMet Biosciences, Inc., priority 2018, dated 2025).
